Experimental findings from patent US20240226343A1, “NEUROPEPTIDE Y1 RECEPTOR (NPY1R) TARGETED THERAPEUTICS AND USES THEREOF” (RADIONETICS ONCOLOGY, INC., priority 2022, published 2024) are described below.

The target in this assay is T1, hNPY1R (Homo sapiens, UniProt P25929).
T1 construct: SK-N-MC cells endogenously expressing the NPY1R receptor; endogenous in cells; host or cells: SK-N-MC cells (crude membrane fractions)
T1 sequence (P25929 1-384): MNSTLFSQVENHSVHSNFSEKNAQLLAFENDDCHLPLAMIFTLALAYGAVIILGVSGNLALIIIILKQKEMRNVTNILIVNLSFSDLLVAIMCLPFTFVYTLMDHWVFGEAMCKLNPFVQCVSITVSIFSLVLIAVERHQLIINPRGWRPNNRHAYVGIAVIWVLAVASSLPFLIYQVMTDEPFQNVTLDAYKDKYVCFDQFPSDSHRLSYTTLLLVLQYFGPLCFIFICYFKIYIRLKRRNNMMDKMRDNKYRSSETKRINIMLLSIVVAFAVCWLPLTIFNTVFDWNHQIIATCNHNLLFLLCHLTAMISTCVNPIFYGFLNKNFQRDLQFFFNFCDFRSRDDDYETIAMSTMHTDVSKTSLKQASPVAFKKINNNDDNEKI
As to the kind of experiment: NPY1R binding assay: SK-N-MC membranes, [125I]-Peptide YY (human) competition. Particulars: SK-N-MC membranes. As for the experimental part:
Crude membrane fractions are prepared from SK-N-MC cells endogenously expressing the NPY1R receptor. The cells are grown to 85-100% confluence on standard tissue culture dishes in Eagle's Minimum Essential Medium supplemented with 10% dialyzed FBS. To prepare membranes, cells are scraped and collected in 1× Dulbecco's phosphate buffered saline and then pelleted at 1000 RPM's. The cell pellet is reconstituted in membrane preparation buffer (20 mM HEPES, 6 mM MgCl2 and 1 mM EGTA, protease inhibitor tablets, pH 7.4) and placed in a cell disruption vessel at 1000 PSI for 30 minutes on ice. The pressurized contents are then released and spun down at 1000 RPMs and the supernatant is collected and further centrifuged at 15,000 RPMs to pellet the membranes. The membrane pellet is resuspended in membrane preparation buffer, snap frozen and stored at −80° C. for later use.
[…] Assay contents are then filtered through unifilter GF/C microplates and washed with 9×400 μl of cold wash buffer (25 mM HEPES, 5 mM MgCl2, 1 mM CaCl2), 500 mM NaCl, 0.1% Tween-20, pH 7.4). Assay plates are read using a Top Count NXT and Ki values for compounds are determined using a GraphPad Prism 6 non-linear regression analysis.

The mark [1] stands for this setting: data obtained after 120 minutes at rt, [125I]-Peptide YY, read-out: hNPY.R binding Ki* ††.
Setting [2] is: data obtained after 60 minutes at 37° C., [125I]-Peptide YY 0.05 nM, read-out: hNPY1R binding Ki* †.

Where two headings read alike, the source gives them in different places.

The term Ki denotes a dissociation constant, usually derived from enzyme kinetics or from competition with a known ligand. For `CCC(=O)NCCNC(=O)/N=C(/N)NCCC[C@@H](NC(=O)C(c1ccccc1)c1cccc(OCCCCNC(=O)c2ccc(CNC(=O)CN3CCN(CC(=O)O)CCN(CC(=O)O)CCN(CC(=O)O)CC3)cc2)c1)C(=O)NCc1ccc(O)cc1` (stereo partly drawn) [Compound 123, 2,2′,2″-(10-(2-((4-((4-(3-((4R,Z)-9-amino-4-((4-hydroxybenzyl)carbamoyl)-2,11,16-trioxo-1-phenyl-3,8,10,12,15-pentaazaoctadec-9-en-1-yl)phenoxy)butyl)carbamoyl)benzyl)amino)-2-oxoethyl)-1,4,7,10-tetraazacyclododecane-1,4,7-triyl)triacetic acid], the Ki under setting [1] is less than 10 nM.
For the molecule `CCC(=O)NCCNC(=O)/N=C(/N)NCCC[C@@H](NC(=O)C(c1ccccc1)c1cccc(OCCCCNC(=O)[C@H](CS(=O)(=O)O)NC(=O)CN2CCN(CC(=O)O)CCN(CC(=O)O)CCN(CC(=O)O)CC2)c1)C(=O)NCc1ccc(O)cc1` (single isomer, unassigned) [Compound 107A], under setting [2], the Ki lay within 10 to 100 nM.
Regarding `CCC(=O)NCCNC(=O)/N=C(/N)NCCC[C@@H](NC(=O)C(c1ccccc1)c1ccc(NCCCNc2c(NCCNC(=O)CN3CCN(CC(=O)O)CCN(CC(=O)O)CCN(CC(=O)O)CC3)c(=O)c2=O)cc1)C(=O)NCc1ccc(O)cc1` (single isomer, unassigned) [Compound 124A], the Ki is 10 to 100 nM under setting [2] and less than 10 nM under setting [1].
As to `CCC(=O)NCCNC(=O)/N=C(/N)NCCC[C@@H](NC(=O)C(c1ccccc1)c1ccc(NCCCNC(=O)c2ccc(C(=O)NCCCCNC(=O)CN3CCN(CC(=O)O)CCN(CC(=O)O)CCN(CC(=O)O)CC3)cc2)cc1)C(=O)NCc1ccc(O)cc1` (stereo partly drawn) [Compound 157, 2,2′,2″-(10-(2-((4-(4-((3-((4-((4R,Z)-9-amino-4-((4-hydroxybenzyl)carbamoyl)-2,11,16-trioxo-1-phenyl-3,8,10,12,15-pentaazaoctadec-9-en-1-yl)phenyl)amino)propyl)carbamoyl)benzamido)butyl)amino)-2-oxoethyl)-1,4,7,10-tetraazacyclododecane-1,4,7-triyl)triacetic acid], the inhibition constant Ki under setting [1] was less than 10 nM.
Take `CCC(=O)NCCNC(=O)/N=C(/N)NCCC[C@@H](NC(=O)C(c1ccccc1)c1ccc(NC(=O)CCOCCOCCOCCOCCNC(=O)CN2CCN(CC(=O)O)CCN(CC(=O)O)CCN(CC(=O)O)CC2)cc1)C(=O)NCc1ccc(O)cc1` (single isomer, unassigned) [Compound 102A]: the Ki under setting [2] lay within 10 to 100 nM.
Regarding `CCC(=O)NCCNC(=O)/N=C(/N)NCCC[C@@H](NC(=O)C(c1ccccc1)c1cccc(OCCCCNC(=O)CNC(=O)[C@@H](CC(N)=O)NC(=O)CN2CCN(CC(=O)O)CCN(CC(=O)O)CCN(CC(=O)O)CC2)c1)C(=O)NCc1ccc(O)cc1` (single isomer, unassigned) [Compound 112B], the inhibition constant Ki under setting [2] is less than 10 nM.
Turning to `CCC(=O)NCCNC(=O)/N=C(/N)NCCC[C@@H](NC(=O)C(c1ccccc1)c1ccc(NCCCNC(=O)[C@H](N)CCCNC(=O)CN2CCN(CC(=O)O)CCN(CC(=O)O)CCN(CC(=O)O)CC2)cc1)C(=O)NCc1ccc(O)cc1` (single isomer, unassigned) [Compound 135A], the Ki under setting [1] is less than 10 nM.
For `CCC(=O)NCCNC(=O)/N=C(/N)NCCC[C@@H](NC(=O)C(c1ccccc1)c1ccc(NCCCNc2c(NCCNC(=O)CN3CCN(CC(=O)O)CCN(CC(=O)O)CCN(CC(=O)O)CC3)c(=O)c2=O)cc1)C(=O)NCc1ccc(O)cc1` (single isomer, unassigned) [Compound 124B], the Ki under setting [2] was less than 10 nM and the Ki under setting [1] was less than 10 nM.
In the case of `CCC(=O)NCCNC(=O)/N=C(/N)NCCC[C@@H](NC(=O)C(c1ccccc1)c1cccc(OCCCCNC(=O)[C@@H](Cc2ccc3ccccc3c2)NC(=O)CCNC(=O)CN2CCN(CC(=O)O)CCN(CC(=O)O)CCN(CC(=O)O)CC2)c1)C(=O)NCc1ccc(O)cc1` (stereo partly drawn) [Compound 150, 2,2′,2″-(10-(2-((3-(((2R)-1-((4-(3-((4R,Z)-9-amino-4-((4-hydroxybenzyl)carbamoyl)-2,11,16-trioxo-1-phenyl-3,8,10,12,15-pentaazaoctadec-9-en-1-yl)phenoxy)butyl)amino)-3-(naphthalen-2-yl)-1-oxopropan-2-yl)amino)-3-oxopropyl)amino)-2-oxoethyl)-1,4,7,10-tetraazacyclododecane-1,4,7-triyl)triacetic acid], the inhibitory constant (Ki) under setting [1] is less than 10 nM.
Still for that read-out and setting: the value for `CCC(=O)NCCNC(=O)/N=C(/N)NCCC[C@@H](NC(=O)C(c1ccccc1)c1cccc(OCCCCNC(=O)[C@H](N)CCCCNC(=O)c2ccc(CNC(=O)CN3CCN(CC(=O)O)CCN(CC(=O)O)CCN(CC(=O)O)CC3)cc2)c1)C(=O)NCc1ccc(O)cc1` (single isomer, unassigned) [Compound 142B] was less than 10 nM.
As for `CCC(=O)NCCNC(=O)/N=C(/N)NCCC[C@@H](NC(=O)C(c1ccccc1)c1cccc(OCCCCNC(=O)CN2CCN(C(=O)CN3CCN(CC(=O)O)CCN(CC(=O)O)CCN(CC(=O)O)CC3)CC2)c1)C(=O)NCc1ccc(O)cc1` (single isomer, unassigned) [Compound 118B], under setting [2], the Ki is less than 10 nM.
In the case of `CCNC(=O)/N=C(/N)NCCC[C@@H](NC(=O)C(c1ccccc1)c1ccc(NCCCNC(=O)[C@H](N)CCCNC(=O)[C@@H](Cc2ccc(-c3ccccc3)cc2)NC(=O)CN2CCN(CC(=O)O)CCN(CC(=O)O)CCN(CC(=O)O)CC2)cc1)C(=O)NCc1ccc(O)cc1` (single isomer, unassigned) [Compound 151], the inhibition constant (Ki) under setting [1] was less than 10 nM.
Turning to `CCC(=O)NCCNC(=O)/N=C(/N)NCCC[C@@H](NC(=O)C(c1ccccc1)c1cccc(OCCCCNC(=O)[C@@H](CCCNC(=N)N)NC(=O)CCNC(=O)CN2CCN(CC(=O)O)CCN(CC(=O)O)CCN(CC(=O)O)CC2)c1)C(=O)NCc1ccc(O)cc1` (single isomer, unassigned) [Compound 141A], the Ki under setting [1] was less than 10 nM.
Consider `CCC(=O)NCCNC(=O)/N=C(/N)NCCC[C@@H](NC(=O)C(c1ccccc1)c1ccc(NCCCNC(=O)CN2CCC(NC(=O)CN3CCN(CC(=O)O)CCN(CC(=O)O)CCN(CC(=O)O)CC3)CC2)cc1)C(=O)NCc1ccc(O)cc1` (single isomer, unassigned) [Compound 133B], for which the inhibition constant Ki under setting [1] is less than 10 nM.
Same read-out and setting: the value for `CCC(=O)NCCNC(=O)/N=C(/N)NCCC[C@@H](NC(=O)C(c1ccccc1)c1ccc(NCCNC(=O)[C@H](N)CCCNC(=O)CN2CCN(CC(=O)O)CCN(CC(=O)O)CCN(CC(=O)O)CC2)cc1)C(=O)NCc1ccc(O)cc1` (single isomer, unassigned) [Compound 143B] was less than 10 nM.
With `CCC(=O)NCCNC(=O)/N=C(/N)NCCC[C@@H](NC(=O)C(c1ccccc1)c1cccc(OCCCCNC(=O)[C@H](N)CCCCNC(=O)c2ccc(CNC(=O)CN3CCN(CC(=O)O)CCN(CC(=O)O)CCN(CC(=O)O)CC3)cc2)c1)C(=O)NCc1ccc(O)cc1` (single isomer, unassigned) [Compound 142A], under setting [1], the inhibition constant Ki was less than 10 nM.
As for `CCC(=O)NCCNC(=O)/N=C(/N)NCCC[C@@H](NC(=O)C(c1ccccc1)c1ccc(NC(=O)CCOCCOCCOCCOCCNC(=O)CN2CCN(CC(=O)O)CCN(CC(=O)O)CCN(CC(=O)O)CC2)cc1)C(=O)NCc1ccc(O)cc1` (single isomer, unassigned) [Compound 102B], the inhibition constant Ki under setting [2] lay within 10 to 100 nM.
As to `CCC(=O)NCCNC(=O)/N=C(/N)NCCC[C@@H](NC(=O)C(c1ccccc1)c1cccc(OCCCCNC(=O)C[C@H]2NC(=O)[C@@H](CCCNC(=O)CN3CCN(CC(=O)O)CCN(CC(=O)O)CCN(CC(=O)O)CC3)NC2=O)c1)C(=O)NCc1c(F)cc(O)cc1F` (single isomer, unassigned) [Compound 164A], under setting [1], the Ki is less than 10 nM.
On to `CCC(=O)NCCNC(=O)/N=C(/N)NCCC[C@@H](NC(=O)C(c1ccccc1)c1ccc(NCCCNc2c(NCCNC(=O)[C@@H](CN)NC(=O)CN3CCN(CC(=O)O)CCN(CC(=O)O)CCN(CC(=O)O)CC3)c(=O)c2=O)cc1)C(=O)NCc1ccc(O)cc1` (single isomer, unassigned) [Compound 137B], for which the Ki under setting [1] was less than 10 nM.
As to `CCC(=O)NCCNC(=O)/N=C(/N)NCCC[C@@H](NC(=O)C(c1ccccc1)c1ccc(NCCCNC(=O)[C@H](N)CCCNC(=O)[C@@H](Cc2ccc(-c3ccccc3)cc2)NC(=O)CN2CCN(CC(=O)O)CCN(CC(=O)O)CCN(CC(=O)O)CC2)cc1)C(=O)NCc1ccc(O)cc1` (stereo partly drawn) [Compound 134B-In, indium (III) 2,2′,2″-(10-(2-(((R)-3-([1,1′-biphenyl]-4-yl)-1-(((R)-4-amino-5-((3-((4-((4R,Z)-9-amino-4-((4-hydroxybenzyl)carbamoyl)-2,11,16-trioxo-1-phenyl-3,8,10,12,15-pentaazaoctadec-9-en-1-yl)phenyl)amino)propyl)amino)-5-oxopentyl)amino)-1-oxopropan-2-yl)amino)-2-oxoethyl)-1,4,7,10-tetraazacyclododecane-1,4,7-triyl)triacetic acid], the Ki under setting [1] was less than 10 nM.
